Where two headings read alike, the source gives them in different places.
Legend:
[1] = test system: GLT-1; conditions: cited from earlier work; for expression of GLT-1: SOD1 mouse model of ALS
[2] = test system: GLT-1; conditions: 50 mg/kg daily IP, last 6 days of extinction training; cocaine self-administering rats; nucleus accumbens core, normalized to calnexin; FIG. 1
[3] = Nakagura et al. (2005); cited from earlier work
[4] = test system: amyotrophic lateral sclerosis; conditions: 50 mg daily; after 15 months of treatment; cited from earlier work
[5] = test system: planarian; conditions: planarian model; Rawls et al., 2008; cited from earlier work
[6] = cited from earlier work
[7] = test system: GLT-1; conditions: Rothstein et al., 2005; Lee et al., 2008; cited from earlier work
[8] = test system: GLT-1; conditions: decreased by repeated cocaine administration; cited from earlier work
[9] = test system: cysteine-glutamate exchanger; conditions: decreased by repeated cocaine administration; cited from earlier work
[10] = rats; Sari et al., 2009; Knackstead et al., 2010; cited from earlier work

COc1ccc2c(c1)[nH]c1c(C)nccc12 [Harmine]
expression of GLT-1 [1]: increases GLT-1 expression

C[C@@H](O)[C@H]1C(=O)N[C@@H]1[C@@H](C)C(=O)N1CCN(C)CC1 [MC-100093]
GLT-1 expression [2]: restored GLT-1 expression levels to normal

CC1CC=NN1C(=O)c1cccnc1 (stereo not shown) [MS-153]
conditioned place preference induced by cocaine [3]: inhibited the conditioned place preference induced by cocaine

Nc1nc2ccc(OC(F)(F)F)cc2s1 [Riluzole]
increase in life expectancy [4]: 2-3 months

CO/N=C(\C(=O)N[C@@H]1C(=O)N2C(C(=O)O)=C(CSc3nc(=O)c(=O)[nH]n3C)CS[C@H]12)c1csc(N)n1 [ceftriaxone]
abstinence withdrawal from cocaine [5]: inhibits abstinence withdrawal from cocaine
free, unbound cerebrospinal fluid/plasma ratio based on Cmax ([6]; Chadwick et al., 1983): 2-13%
free, unbound cerebrospinal fluid/plasma ratio based on AUCs ([6]; Lutsar and Friedland, 2000): 1%
GLT-1 expression [7]: stimulator of GLT-1 expression
GLT-1 levels [8]: restores
expression of GLT-1 [1]: increases the expression of GLT-1
mean survival time ([1]; SOD1 mouse): increases the mean survival time
cysteine-glutamate exchanger levels [9]: restores
relapse to cocaine seeking [10]: prevents relapse to cocaine seeking

Reference: patent publication US9975879B2, “Beta lactams as modulators of glutamate uptake and methods for use thereof” (Temple University of the Commonwealth System of Higher …, priority 2013, dated 2018)
